From patent US20220220100A1 (SOLUTIA CANADA INC., priority 2019, published 2022)

How the values were obtained:
Format in all cases: physicochemical
[1] = UV/Vis absorbance at 400 nm and Yellowness Index of the ring-open isomer; settings: for Abs @ 400 nm, RO (Absorption of ring-open isomer at 400 nm): 2×10^−5 M solution, 1 cm pathlength cuvette
Source text: In addition to the above, chromophores should have acceptable colour for both the ring-opened and ring-closed isomers. For example, the ring-open isomer of the chromophore should have a Yellowness Index (YI) of less than about 10 and an absorbance at 400 nm, as measured for a 2×10^−5 M solution in a 1 cm pathlength cuvette. For the ring-closed isomer of the chromophore, the lambda max should be between about 475 nm and 700 nm, tunable according to desired colour and number of chromophores in the composition.
(§1) UV/Vis spectra were obtained using an OceanOptics™ Spectrophotometer. A 2×10^−5 M solution of compound in solvent was prepared, and photofaded using visible light until absorption in the visible region of the spectrum stabilized. The sample was then irradiated with simulated sunlight (QSUN SS-150 Solar Simulator with xenon arc lamp) until the absorption spectrum stabilized. To obtain PSS in the presence of a UV blocking film, a second sample was prepared and irradiated as described, with a UV blocking film inserted in the light path when irradiating.

[2] = Photostability: xenon arc weathering of chromophore solutions, LCMS analysis; settings: for Ketone (%) / Minus-2HF (%) / Minus-HF (%) / Sulfone (%) / Chromophore Remaining (%): xenon arc, 82° C. bp; for Ketone (%) / Minus-2HF (%) / Minus-HF (%) / Sulfone (%): linearly interpolated to 0.5 MJ/m2 @ 340 nm; for Chromophore Remaining (%): linearly interpolated to 0.5 MJ/m2 @ 340 nm of exposure energy; for Photostability (in words): weathering experiments
Source text: Photostability (resistance to light-induced degradation) may be measured by the amount of time required for the compound, or a material comprising the compound, to degrade to a certain point under light exposure. The light exposure may be constant, or cyclic. The light transmittance or absorbance of the compound, or material comprising the compound, may be determined at both a light state and dark state prior to testing, to determine a contrast ratio. During testing, the contrast ratio may be monitored (periodically or continually), the compound or material may be determined to have failed when the contrast ratio falls outside, or below, a selected range, or when the contrast ratio decreases to a percentage of the original contrast ratio. Photostability may also be expressed with reference to a light source or with reference to a type of light.
Chromophore solutions in Rhodiasolv IRIS were prepared at 1 to 10 wt % loading. Solutions were prepared in a glovebox by charging the chromophore and Rhodiasolv IRIS to a trace-clean vial, and the solution was stirred on a hotplate at 90° C. for 2-24 hours. After cooling, the chromophore solution was injected into glass weathering cells and the fill and vent ports were sealed with a thin disc of Kalrez (FFKM Perfluorinated Elastomer) and secured with a clamp and set-screw. The weathering cells were filled and sealed inside the glove box.
Measurement of Photostability
A. Fabrication of cuvettes. Two holes of 0.8 mm diameter were drilled at opposite ends in a 75×50 mm piece of float glass using a diamond drill bit in a rotary tool. The drilled glass and a matching piece of undrilled glass were then cleaned using hot soapy water, rinsed with deionized water and acetone and then dried with compressed air. A 5 mm wide frame was cut from a sheet of 50 μm thickness EVAL EF-F using a laser engraver. The EVAL frame was placed around the perimeter of one sheet of glass and sandwiched by the second sheet of glass. The glass-EVAL-glass sandwich was secured with tape and heated under vacuum (10 mmHg) for 30 minutes at 170° C. in a vacuum bag. After cooling, a third piece of float glass was PVB laminated to the non-drilled side of the sealed glass cells using Trosifol UV Extra Protect B150 PVB (400 nm UV cut-off).
B. Xenon arc weathering protocol. Devices were exposed to simulated weathering conditions inside a Xe-3-HS xenon arc chamber, manufactured by Q-labs Inc. The samples were weathered according to the following table. The devices were exposed to these conditions continuously, with no dark or spray cycles included.
C. Analysis of weathered chromophore solutions by LCMS. The set-screws, metal clamps and Kalrez plugs were removed from the cuvette to expose the fill port. A 5 mL plastic syringe (NORM-JECT®) equipped with a tip (Precision Tips, 0.010″ RED) was inserted into one fill port and the chromophore solution was withdrawn from the cuvette. The chromophore solution was then injected into a 2 mL amber vial (part number 5182-0716, Agilent Technology) prefilled with 1.5 mL LC-MS grade acetonitrile (HiPerSolbe CHROMANORM Acetonitrile, VWR BDH Chemicals). An aliquot of the acetonitrile solution (2 μL) was injected into the LC-MS system (Agilent Infinity 1290 LC-MS system with diode array detector) through an autosampler mechanism. Species in the injected sample were separated through a reverse phase column (Zorbax SB-C18, 2.1×50 mm, 1.8 μm, operated at 40° C.), using a mixture of acetonitrile (mixed with 1% formic acid v/v ratio), methanol (HiPerSolbe CHROMANORM Methanol, VWR BDH Chemicals) and water (HiPerSolbe CHROMANORM Water, VWR BDH Chemicals) as mobile phase.

[3] = Photostationary state (PSS) and lambda max under simulated sunlight (solar simulator); settings: for PSS (SS): absorbance at photostationary state, simulated sunlight (solar simulator), 2×10^−5 M solution; for λmax (nm): peak in the visible range, ring-closed (dark) state
Source text: The term “photostationary state” (PSS) refers to an equilibrium state of a compound or material where the rate of the ring closing (forward) reaction is equal to the rate of the ring-opening reaction, when irradiated with light in a given region of the spectrum. In other words, the ratio of the ring-open isomer to the ring-closed isomer is at an equilibrium. PSS may be expressed with reference to a light source, or with reference to a type of light, for example, QUV, Xenon-arc lamp, Q-SUN, natural or filtered sunlight, UV, VIS, IR, NIR, full spectrum or the like, or with reference to a particular wavelength or range of wavelengths, or in the presence or absence of a filter. Some ring-open and ring-closed isomers may undergo isomerization from one to the other in response to different wavelengths of light. If a wavelength of light is used where only one of the isomers absorbs, irradiation results in complete isomerization to the other form. 254 nm, 313 nm or 365 nm light are commonly used in studies of UV-absorbing isomers, but this may not be representative of the PSS under other light conditions that include the visible spectrum such as natural or simulated sunlight (“full spectrum” light) and/or with filters that block a portion of the UV component of the light. For example, in a ring-closed (dark) state, the magnitude of the maximum absorbance in the visible range may change with the light source (FIG. 1). The wavelength at this peak in the visible range may be referred to as lambda max, or λmax. […] When full spectrum light from a solar simulator (Xenon arc lamp) is used as a light source (line B), a balance is achieved between the ring-closed (dark) state induced by the UV component, and a ring-open (faded) state induced by the visible component of the light. Inclusion of a UV blocking layer in the light path (line A) may reduce the UV component of the light, and the ring-opening reaction induced by the visible light component becomes more prominent. […] Where desired, the ratio of ring-open and ring-closed isomers at a PSS may be quantified by ^1H NMR spectroscopy, such as described in U.S. Pat. No. 7,777,055. In various embodiments, compounds with an increased absorbance at a photostationary state (PSS), or increased contrast ratio, are an improvement over other diarylethene compounds. A compound with a greater absorbance in the visible range can be used in lesser quantities in a formulation or material to achieve a desired contrast ratio, whereas a compound with a lower absorbance at a PSS may need a higher concentration to achieve a desired contrast ratio.
Photostationary State (PSS)
as §1

[4] = Oxidation potential of ring-closed and ring-open isomers; settings: no unit printed in table (V relative to Ag/AgCl)
Source text: In various embodiments, at a PSS, some of the chromophore will be in the ring-closed isomer, with a small, but non-zero portion of ring-open isomer. The oxidation potential of a ring-open isomer may be more anodic than the oxidation potential of a ring-closed isomer. Exposure to a potential that is too far beyond what is necessary to oxidize the ring-closed isomer may result in oxidation of the ring-open isomer, which may be irreversible and result in electrochemically-induced degradation of the chromophore.
Thus, in various embodiments, an anodic chromophore may have an oxidation potential of from about 0.4 V to 1.2 V for the ring-closed isomer and about 1.0 V to 2.5 V for the ring-open isomer relative to an Ag/AgCl reference electrode. In various embodiments, the oxidation potential for the ring-open isomer is about 250 mV more anodic than the oxidation potential for the ring-closed isomer. For example, the oxidation potential may be about 260 mV, about 280 mV, about 300 mV, about 320 mV, about 340 mV, about 360 mV, about 380 mV, about 400 mV, about 420 mV, about 440 mV, or about 460 mV more anodic than the oxidation potential for the ring-closed isomer.

[5] = 1 wt %, interpolated to 0.5 MJ/m^2 of energy exposure at 340 nm

Row | Structure (SMILES) | YI (Yellowness Index) [1] | Abs @ 400 nm, RO (Absorption of ring-open isomer at 400 nm) [1] | Ketone (%) ([2]; 3 wt % in Rhodiasolv IRIS) | Minus-2HF (%) ([2]; 3 wt % in Rhodiasolv IRIS) | Minus-HF (%) ([2]; 3 wt % in Rhodiasolv IRIS) | Sulfone (%) ([2]; 3 wt % in Rhodiasolv IRIS) | Chromophore Remaining (%) ([2]; 3 wt % in Rhodiasolv IRIS) | Ratio of chromophore remaining relative to S340 ([2]; 3 wt %, interpolated to 0.5 MJ/m^2 of energy exposure at 340 nm) | Photostability (in words) [2] | PSS (SS) [3] | λmax (nm) [3] [nm] | RC [O] (oxidation potential of ring-closed isomer) ([4]; ring-closed isomer) | RO [O] (oxidation potential of ring-open isomer) ([4]; ring-open isomer) | Ketone (%) ([2]; 1 wt % in Rhodiasolv IRIS) | Minus-2HF (%) ([2]; 1 wt % in Rhodiasolv IRIS) | Minus-HF (%) ([2]; 1 wt % in Rhodiasolv IRIS) | Sulfone (%) ([2]; 1 wt % in Rhodiasolv IRIS) | Chromophore Remaining (%) ([2]; 1 wt % in Rhodiasolv IRIS) | Ratio of chromophore remaining relative to S340 [2, 5] | Sum of degradation product percentages relative to the sum of degradation product percentages for S340 [2, 5]
1 | COc1cc2oc(-c3ccc(C(C)(C)C)cc3)c(C3=C(c4cc(-c5cccs5)sc4-c4cccs4)C(F)(F)C(F)(F)C3(F)F)c2cc1OC [Chromophore S193, 3-(2-([2,2′:5′,2″-terthiophen]-3′-yl)-3,3,4,4,5,5-hexafluorocyclopent-1-en-1-yl)-2-(4-(tert-butyl)phenyl)-5,6-dimethoxybenzofuran] | 3.59 | 0.097 | 0.0 | 2.1 | 1.4 | 0.0 | 92.7 | 1.02 | high photostability | 0.269 | 587 | 1.02 | 1.41 |  |  |  |  |  |  | 
2 | COc1cc2oc(-c3ccc(C(C)(C)C)cc3)c(C3=C(c4cc(-c5cc6c(s5)C(C)(C)CC6(C)C)sc4-c4cc5c(s4)C(C)(C)CC5(C)C)C(F)(F)C(F)(F)C3(F)F)c2cc1OC [Chromophore S404] | 11.1 | 0.182 |  |  |  |  |  |  | high photostability | 0.429 | 599 |  |  | 0.0 | 0.0 | 0.0 | 0.0 | 100.0 | 1.10 | 0.00
